# Laboratory results taken from PMC7576608, “Mechanisms of telomerase inhibition by oxidized and therapeutic dNTPs” (Nature Communications, 2020).
# Several values for one entry are separate records, joined by “and”; a condition that tells them apart may be missing. Identical values can stand only once. Like-named read-outs stand apart in the source and are kept apart here.
# Target: telomerase (Homo sapiens, UniProt O14746)
# Test: Telomerase repeat processivity IC50: modified dNTP titrated into reactions with all four natural dNTPs
# Assay type: biochemical
# Parameters: made in house; anti-FLAG immunopurification, eluted with 3xFLAG peptide
# Details: for LogIC50 (processivity): concentration in μM
# Excerpt: In order to better understand the ability of modified dNTPs to compete with natural dNTPs for telomerase utilization, we added modified dNTPs to reactions containing all four natural dNTPs. […] The calculated IC50 determines the concentration required to reduce repeat processivity in the bulk reactions by half. However, it is important to note that bulk experiments cannot distinguish effects on individual telomeres, since extended telomeres mask unextended telomeres. Incorporation of a chain terminator during any step will terminate extension of the affected telomere, and just five critically short telomeres are sufficient to trigger senescence. Therefore, repeat processivity IC50 values are not necessarily an indicator of the inhibitory potency, but provide information on selectivity for modified dNTPs compared to natural dNTPs. […] The ability to purify sufficient quantities of tcTERT enables characterization of the catalytic nucleotide addition by pre-steady-state single turnover kinetics using a defined DNA–RNA primer–template substrate. The catalytic efficiency of incorporating a single dNTP is measured by dividing the observed nucleotide incorporation rate constant, kpol, by the equilibrium dissociation constant for dNTP binding to the tcTERT–primer–template complex (Kd)[44].
# The reactions were started by the addition of 3 μl of immunopurified telomerase eluent, incubated at 37 °C for 1 h, then terminated with 2 μl of […] and heat inactivated at 65 °C for 20 min. An equal volume of loading buffer (94% formamide, 0.1× TBE, 0.1% bromophenol blue, 0.1% xylene cyanol) was added to the reaction eluent. The samples were heat denatured for 10 min at 100 °C and loaded onto a 14% denaturing acrylamide gel (7 M urea, 1× TBE) and electrophoresed for 90 min at constant 38 W. Samples were imaged using a Typhoon phosphorimager (GE Healthcare). Percent primer extension was calculated with ImageQuant TL 8.2 by measuring the intensity of each product band and dividing by the total radioactivity in the lane or total products, as indicated in the figure legends.
# The processivity was calculated as described[40],[67]. Repeat processivity from the direct telomerase extension assays was calculated as R1/2 (equivalent to the half-time for decay in an exponential time course), which represents the median length of DNA product formed, expressed in terms of number of telomere repeats. First, the total volume counts for each product band extend by one or more telomere repeats were obtained using Image Quant TL. The volume counts were then normalized by dividing by the number of radiolabeled guanosines incorporated into the extended products based on the number of repeats added, termed corrected volume (corr vol). The “percent left behind” (%LB) was calculated for each product band by summing the counts for that product band and for every product band below (shorter products), divided by the total counts for the lane, and then multiplied by 100. The natural log of (100−%LB) was calculated and then plotted vs. repeat number for each product length. A linear regression line was fit to the data to determine the slope of the line. The R1/2 value was calculated by dividing −ln(2) by the slope of each fitted line (R1/2 = −ln(2)/slope).
# Supplementary Fig 8. IC50 values for telomerase processivity inhibition. Telomerase reactions were conducted with cellular relevant concentrations of all four natural dNTPs and increasing concentrations of the modified dNTP analog from 0 to 10,000 μM to calculate. (a) The natural log of (100-%LB) was plotted vs repeat number. A straight line was fit to the data and the R1/2 value was calculated by dividing –ln(2) by the slope of each line. Plots shown from one experiment are […]
# [1] = cellular relevant natural dNTPs, modified dNTP titrated 0 to 10,000 μM, based on repeat processivity, mean ± SD, read-out: Telomerase processivity IC50
# [2] = log of processivity IC50 (concentration in μM), Supplementary Fig 8b, read-out: Log IC50 (converted)
# [3] = 6-thio-dGTP, per replicate N1-N3
# Chain of telomerase (O14746 whole entry): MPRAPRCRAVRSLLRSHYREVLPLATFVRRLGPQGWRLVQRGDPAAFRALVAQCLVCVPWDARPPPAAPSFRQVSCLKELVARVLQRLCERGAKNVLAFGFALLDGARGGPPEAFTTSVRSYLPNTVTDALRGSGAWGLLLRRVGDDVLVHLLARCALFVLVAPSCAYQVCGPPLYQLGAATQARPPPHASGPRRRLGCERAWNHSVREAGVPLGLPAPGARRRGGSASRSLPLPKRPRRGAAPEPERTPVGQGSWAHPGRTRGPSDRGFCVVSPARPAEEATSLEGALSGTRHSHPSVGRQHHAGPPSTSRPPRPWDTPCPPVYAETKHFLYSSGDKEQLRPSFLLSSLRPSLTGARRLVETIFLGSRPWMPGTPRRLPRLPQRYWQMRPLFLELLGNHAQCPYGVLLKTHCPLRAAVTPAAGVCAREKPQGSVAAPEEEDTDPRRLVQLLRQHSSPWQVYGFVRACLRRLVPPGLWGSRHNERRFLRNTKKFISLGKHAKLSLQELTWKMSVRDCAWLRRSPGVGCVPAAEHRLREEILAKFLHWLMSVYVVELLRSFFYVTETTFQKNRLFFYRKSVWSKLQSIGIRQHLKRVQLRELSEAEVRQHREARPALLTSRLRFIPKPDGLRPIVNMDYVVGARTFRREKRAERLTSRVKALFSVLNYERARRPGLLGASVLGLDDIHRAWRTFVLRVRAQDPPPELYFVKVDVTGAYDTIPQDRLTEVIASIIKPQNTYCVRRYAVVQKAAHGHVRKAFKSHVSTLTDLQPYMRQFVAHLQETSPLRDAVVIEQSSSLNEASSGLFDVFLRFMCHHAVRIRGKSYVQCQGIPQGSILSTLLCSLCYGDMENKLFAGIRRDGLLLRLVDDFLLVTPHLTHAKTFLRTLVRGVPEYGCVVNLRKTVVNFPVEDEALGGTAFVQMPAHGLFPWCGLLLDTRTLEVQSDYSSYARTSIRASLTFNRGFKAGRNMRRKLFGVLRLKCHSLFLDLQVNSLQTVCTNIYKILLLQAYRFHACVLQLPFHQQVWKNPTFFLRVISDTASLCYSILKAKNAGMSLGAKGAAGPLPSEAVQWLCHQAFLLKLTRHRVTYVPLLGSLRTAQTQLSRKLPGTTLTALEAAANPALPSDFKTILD
smiles,measurement,setting,value
Nc1nc(O)nc2c1ncn2C1CC(O)C(COP(=O)(O)OP(=O)(O)OP(=O)(O)O)O1 (stereo not drawn) [2-OH-dATP],YIntercept (line fit of ln(100-%LB) vs # telomere repeats),2-OH-dATP 31μM,3.86 and 4.26 and 3.87
same,ln(100-%LB),"2-OH-dATP 31μM, telomere repeat 1",3.80 and 4.29 and 3.78
same,ln(100-%LB),"2-OH-dATP 31μM, telomere repeat 2",3.30 and 3.65 and 3.08
same,ln(100-%LB),"2-OH-dATP 31μM, telomere repeat 3",2.75 and 3.04 and 2.41
same,ln(100-%LB),"2-OH-dATP 31μM, telomere repeat 4",2.47 and 2.74 and 2.04
same,ln(100-%LB),"2-OH-dATP 31μM, telomere repeat 5",2.09 and 2.42 and 1.67
same,ln(100-%LB),"2-OH-dATP 31μM, telomere repeat 6",1.74 and 2.03 and 1.15
same,Processivity R 1/2,2-OH-dATP 31.25 μM,2.08 and 3.03 and 1.6
same,Processivity R 1/2,2-OH-dATP 62.5 μM,1.82 and 1.19 and 1.25
same,Processivity R 1/2,2-OH-dATP 250μM,0.71 and 1.05 and 0.94
same,YIntercept (line fit of ln(100-%LB) vs # telomere repeats),2-OH-dATP 250μM,4.34 and 4.78 and 4.14
same,ln(100-%LB),"2-OH-dATP 250μM, telomere repeat 1",3.46 and 4.32 and 3.82
same,ln(100-%LB),"2-OH-dATP 250μM, telomere repeat 2",2.39 and 3.46 and 2.75
same,Processivity R 1/2,2-OH-dATP 500μM,0.82 and 0.52 and 1.02
same,YIntercept (line fit of ln(100-%LB) vs # telomere repeats),2-OH-dATP 500μM,3.92 and 4.75 and 4.04
same,ln(100-%LB),"2-OH-dATP 500μM, telomere repeat 1",3.41 and 4.41 and 3.82
same,ln(100-%LB),"2-OH-dATP 500μM, telomere repeat 2",2.30 and 3.46 and 2.66
same,YIntercept (line fit of ln(100-%LB) vs # telomere repeats),2-OH-dATP 750μM,4.21 and 5.17 and 4.34
same,ln(100-%LB),"2-OH-dATP 750μM, telomere repeat 1",2.99 and 4.03 and 3.90
same,YIntercept (line fit of ln(100-%LB) vs # telomere repeats),2-OH-dATP 1000μM,4.31 and 5.20 and 4.71
same,ln(100-%LB),"2-OH-dATP 1000μM, telomere repeat 1",2.98 and 4.07 and 3.49
same,ln(100-%LB),"2-OH-dATP 1500μM, telomere repeat 2",0.48
same,Processivity R 1/2,2-OH-dATP 2000 μM,0
same,IC50,"2-OH-dATP, mean of N1-N3, SD 66.28, read-out: Mean IC50 (processivity R 1/2)",103 µM
same,"Bottom (best-fit, processivity R 1/2 vs log concentration)","2-OH-dATP, per replicate N1-N3",0.09 and -0.00587 and 0.62
same,HillSlope (processivity),"2-OH-dATP, per replicate N1-N3",-1.28 and -0.83 and -0.032
same,"Span (best-fit, processivity R 1/2 vs log concentration)","2-OH-dATP, per replicate N1-N3",2.29 and 2.84 and 1.84
same,"Top (best-fit, processivity R 1/2 vs log concentration)","2-OH-dATP, per replicate N1-N3",2.38 and 2.84 and 2.47
same,LogIC50 (processivity),"2-OH-dATP, per replicate N1-N3",2.24 and 1.99 and 1.60
same,IC50,"2-OH-dATP, per replicate N1-N3, read-out: IC50 (processivity R 1/2)",172 µM and 97 µM and 39.4 µM
same,IC50,[1],103 ± 66 µM
same,IC50,[2],126 µM
Nc1nc2c(ncn2C2CC(O)C(COP(=O)(O)OP(=O)(O)OP(=O)(O)O)O2)c(=S)[nH]1 (stereo not drawn) [6-thio-dGTP],Processivity R 1/2,6-thio-dGTP 0.625μM,4.12 and 2.32 and 3.78
same,YIntercept (line fit of ln(100-%LB) vs # telomere repeats),6-thio-dGTP 0.625μM,2.91 and 3.25 and 3.64
same,ln(100-%LB),"6-thio-dGTP 0.625μM, telomere repeat 1",3.70 and 3.69 and 3.62
same,ln(100-%LB),"6-thio-dGTP 0.625μM, telomere repeat 2",3.11 and 3.16 and 3.05
same,ln(100-%LB),"6-thio-dGTP 0.625μM, telomere repeat 3",2.56 and 2.68 and 2.52
same,ln(100-%LB),"6-thio-dGTP 0.625μM, telomere repeat 4",2.29 and 2.48 and 2.27
same,ln(100-%LB),"6-thio-dGTP 0.625μM, telomere repeat 5",2.03 and 2.29 and 2.05
same,ln(100-%LB),"6-thio-dGTP 0.625μM, telomere repeat 6",1.75 and 2.06 and 1.79
same,ln(100-%LB),"6-thio-dGTP 0.625μM, telomere repeat 7",1.47 and 1.85 and 1.49
same,ln(100-%LB),"6-thio-dGTP 0.625μM, telomere repeat 8",1.23 and 1.67 and 1.26
same,ln(100-%LB),"6-thio-dGTP 0.625μM, telomere repeat 9",0.98 and 1.45 and 0.96
same,ln(100-%LB),"6-thio-dGTP 0.625μM, telomere repeat 10",0.71 and 1.24 and 0.68
same,YIntercept (line fit of ln(100-%LB) vs # telomere repeats),6-thio-dGTP 10μM,5.12 and 3.95 and 4.44
same,ln(100-%LB),"6-thio-dGTP 10μM, telomere repeat 1",3.39 and 3.57 and 3.48
same,ln(100-%LB),"6-thio-dGTP 10μM, telomere repeat 2",1.78 and 2.70 and 1.99
same,ln(100-%LB),"6-thio-dGTP 10μM, telomere repeat 6",0.15
same,ln(100-%LB),"6-thio-dGTP 10μM, telomere repeat 7",-0.27
same,ln(100-%LB),"6-thio-dGTP 10μM, telomere repeat 8",-0.68
same,ln(100-%LB),"6-thio-dGTP 10μM, telomere repeat 9",-1.63
same,IC50,"6-thio-dGTP, mean of N1-N3, SD 1.45, read-out: Mean IC50 (processivity R 1/2)",5.48 µM
same,"Bottom (best-fit, processivity R 1/2 vs log concentration)",[3],0.3229 and 0.05037 and -0.0895
same,HillSlope (processivity),[3],-2.993 and -0.7699 and -0.9281
same,"Span (best-fit, processivity R 1/2 vs log concentration)",[3],3.504 and 3.529 and 1.482
same,"Top (best-fit, processivity R 1/2 vs log concentration)",[3],3.827 and 3.579 and 1.393
same,LogIC50 (processivity),[3],0.8984 and 0.6519 and 0.682
same,IC50,"6-thio-dGTP, per replicate N1-N3, read-out: IC50 (processivity R 1/2)",4.49 µM and 4.81 µM
same,IC50,[1],5 ± 2 µM
same,IC50,[2],5.01 µM
